Patent publication US8003695B2 (Chroma Therapeutics Ltd., priority 2006, dated 2011)

biological target: T1, IKBKB (IKKβ) (Homo sapiens, UniProt O14920); test: IKKβ Enzyme Assay (Z'-LYTE, Invitrogen); format: biochemical; conditions: ATP at or close to Km; read-out: Inhibitor activity versus IKKβ
T1 construct: purchased Invitrogen (Paisley, UK)
T1 sequence (O14920 1-756): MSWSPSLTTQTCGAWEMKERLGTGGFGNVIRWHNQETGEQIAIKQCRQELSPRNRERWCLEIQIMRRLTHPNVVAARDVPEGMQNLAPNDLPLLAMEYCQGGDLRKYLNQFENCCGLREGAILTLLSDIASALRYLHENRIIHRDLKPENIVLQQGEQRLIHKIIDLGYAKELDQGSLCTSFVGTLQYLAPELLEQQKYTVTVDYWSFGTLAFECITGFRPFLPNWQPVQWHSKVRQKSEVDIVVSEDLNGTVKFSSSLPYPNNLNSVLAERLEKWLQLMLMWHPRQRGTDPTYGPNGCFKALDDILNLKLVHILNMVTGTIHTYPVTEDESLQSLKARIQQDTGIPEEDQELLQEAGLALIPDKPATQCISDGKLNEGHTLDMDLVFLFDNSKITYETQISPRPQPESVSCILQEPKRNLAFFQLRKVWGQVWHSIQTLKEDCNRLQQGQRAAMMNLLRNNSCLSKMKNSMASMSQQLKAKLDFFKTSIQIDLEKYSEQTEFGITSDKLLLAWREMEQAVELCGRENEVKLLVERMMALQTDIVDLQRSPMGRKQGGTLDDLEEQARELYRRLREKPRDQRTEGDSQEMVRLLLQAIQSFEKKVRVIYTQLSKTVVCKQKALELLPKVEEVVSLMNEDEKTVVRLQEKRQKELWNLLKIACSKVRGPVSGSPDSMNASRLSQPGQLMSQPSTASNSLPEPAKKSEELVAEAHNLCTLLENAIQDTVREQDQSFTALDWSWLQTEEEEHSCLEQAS
Experimental: The ability of compounds to inhibit IKKβ kinase activity was measured in an assay performed by Invitrogen (Paisley, UK). The Z′-LYTE™ biochemical assay employs a fluorescence-based, coupled-enzyme format and is based on the differential sensitivity of phosphorylated and non-phosphorylated peptides to proteolytic cleavage. The peptide substrate is labelled with two fluorophores—one at each end—that make up a FRET pair. In the primary reaction, the kinase transfers the gamma-phosphate of ATP to a single serine or threonine residue in a synthetic FRET-peptide. In the secondary reaction, a site-specific protease recognizes and cleaves non-phosphorylated FRET-peptides. Phosphorylation of FRET-peptides suppresses cleavage by the Development Reagent. Cleavage disrupts FRET between the donor (i.e., coumarin) and acceptor (i.e. fluorescein) fluorophores on the FRET-peptide, whereas uncleaved, phosphorylated FRET-peptides maintain FRET. A […] method, which calculates the ratio (the Emission Ratio) of donor emission to acceptor emission after excitation of the donor fluorophore at 400 nm, is used to quantitate reaction progress.
The final 10 μL Kinase Reaction consists of 0.9-8.0 ng IKBKB (IKKβ), 2 μM Ser/Thr 05 Peptide and ATP in 50 mM HEPES pH 7.5, 0.01% BRIJ-35, 10 mM MgCl2, 1 mM EGTA. The assay is performed at an ATP concentration at, or close to the Km. After the 60 minute Kinase Reaction incubation at room temperature, 5 μL of a 1:128 dilution of Development Reagent is added. The assay plate is incubated for a further 60 minutes at room temperature and read on a fluorescence plate reader.
Duplicate data points are generated from a ⅓ log dilution series of a stock solution of test compound in DMSO. Nine dilutions steps are made from a top concentration of 10 μM, and a ‘no compound’ blank is included. Data is collected and analysed using XLfit software from IDBS. The dose response curve is curve fitted to model number 205 (sigmoidal dose-response model). From the curve generated, the concentration giving 50% inhibition is determined and reported.

| Compound | IC50 [nM] |
| --- | --- |
| CC(C)C[C@H](NC/C=C/c1cc(F)c(-c2cc(C(N)=O)c(NC(N)=O)s2)cc1F)C(=O)O [Example 77, N-[(2E)-3-{4-[4-carbamoyl-5-(carbamoylamino)thiophen-2-yl]-2,5-difluorophenyl}prop-2-en-1-yl]-L-leucine] | < 1000 |
| CC(C)C[C@H](NCc1ccc(-c2cc(C(N)=O)c(NC(N)=O)s2)c(Cl)c1)C(=O)O [Example 55, N{4-[4-carbamoyl-5-(carbamoylamino)-2-thienyl]-3-chlorobenzyl}-L-leucine] | < 1000 |
| Cc1cc(-c2cc(C(N)=O)c(NC(N)=O)s2)cc(C)c1/C=C/CN[C@@H](CC(C)C)C(=O)O [Example 80] | < 1000 |
| CC(C)C[C@H](NCCCOc1ccc(-c2cc(C(N)=O)c(NC(N)=O)s2)cc1)C(=O)O [Example 65, N-(3-{4-[4-Carbamoyl-5-(carbamoylamino)-2-thienyl]phenoxy}propyl)-L-leucine] | < 1000 |
| CC(C)(C)OC[C@H](NCc1cccc(-c2cc(C(N)=O)c(NC(N)=O)s2)c1)C(=O)O [Example 60, O-tert-butyl-N-{3-[4-carbamoyl-5-(carbamoylamino)thiophen-2-yl]benzyl}-L-serine] | < 1000 |
| NC(=O)Nc1sc(-c2ccc(CN[C@H](C(=O)O)c3ccccc3)cc2)cc1C(N)=O [Example 50, (2S)-({4-[4-carbamoyl-5-(carbamoylamino)-2-thienyl]benzyl}amino)(phenyl)acetic acid] | < 1000 |
| NC(=O)Nc1sc(-c2cccc(CN[C@H](C(=O)O)c3ccccc3)c2)cc1C(N)=O [Example 58, (2S)-({3-[4-carbamoyl-5-(carbamoylamino)-2-thienyl]benzyl}amino)(phenyl)acetic acid] | < 1000 |
| CC(C)C[C@H](NC/C=C/c1cccc(-c2cc(C(N)=O)c(NC(N)=O)s2)c1)C(=O)O [Example 93, N-[(2E)-3-{3-[4-carbamoyl-5-(carbamoylamino)-2-thienyl]phenyl}prop-2-en-1-yl]-L-leucine] | < 1000 |
| NC(=O)Nc1sc(-c2cccc(CN[C@H](C(=O)O)C3CCCCC3)c2)cc1C(N)=O [Example 59, (2S)-({3-[4-carbamoyl-5-(carbamoylamino)-2-thienyl]benzyl}amino)(cyclohexyl)acetic acid] | < 1000 |
| CC(C)C[C@H](NCCc1cc(-c2cc(C(N)=O)c(NC(N)=O)s2)ccc1F)C(=O)O [Example 90, N-(2-{5-[4-carbamoyl-5-(carbamoylamino)thiophen-2-yl]-2-fluorophenyl}ethyl)-L-leucine] | < 1000 |
| CC(C)C[C@H](NCCc1ccc(-c2cc(C(N)=O)c(NC(N)=O)s2)cc1)C(=O)O [Example 63] | < 1000 |
| CC(C)C[C@H](NCc1ccc(-c2cc(C(N)=O)c(NC(N)=O)s2)cc1)C(=O)O [Example 51, N-{4-[4-Carbamoyl-5-(carbamoylamino)-2-thienyl]benzyl}-L-leucine] | < 1000 |
| CC(C)C[C@H](NCc1cccc(-c2cc(C(N)=O)c(NC(N)=O)s2)c1)C(=O)O [Example 57, N-{3-[4-Carbamoyl-5-(carbamoylamino)-2-thienyl]benzyl}-L-leucine] | < 1000 |
| CC(C)C[C@H](NCCc1cccc(-c2cc(C(N)=O)c(NC(N)=O)s2)c1)C(=O)O [Example 87, N-(2-{3-[4-carbamoyl-5-(carbamoylamino)-2-thienyl]phenyl}ethyl)-L-leucine] | < 1000 |
| C[C@@H](O)[C@H](NCc1cccc(-c2cc(C(N)=O)c(NC(N)=O)s2)c1)C(=O)O [Example 61, N-{3-[4-carbamoyl-5-(carbamoylamino)thiophen-2-yl]benzyl}-L-threonine] | < 1000 |
| CC(C)C[C@H](NC/C=C/c1ccc(-c2cc(C(N)=O)c(NC(N)=O)s2)c(C(F)(F)F)c1)C(=O)O [Example 79, N-[(2E)-3-{4-[4-carbamoyl-5-(carbamoylamino)thiophen-2-yl]-3-(trifluoromethyl)phenyl}prop-2-en-1-yl]-L-leucine] | 1000 to 5000 |
| Cc1cc(-c2cc(C(N)=O)c(NC(N)=O)s2)ccc1CN[C@@H](CC(C)C)C(=O)O [Example 56, N-{4-[4-carbamoyl-5-(carbamoylamino)-2-thienyl]-2-methylbenzyl}-L-leucine] | < 1000 |
| CC(C)C[C@H](NC/C=C/c1ccc(-c2cc(C(N)=O)c(NC(N)=O)s2)cc1F)C(=O)O [Example 71, N-[(2E)-3-{4-[4-carbamoyl-5-(carbamoylamino)thiophen-2-yl]-2-fluorophenyl}prop-2-en-1-yl]-L-leucine] | < 1000 |
| CC(C)C[C@H](NC/C=C/c1ccc(-c2cc(C(N)=O)c(NC(N)=O)s2)cc1)C(=O)O [Example 69, N-[(2E)-3-{4-[4-Carbamoyl-5-(carbamoylamino)-2-thienyl]phenyl}prop-2-en-1-yl]-L-leucine] | < 1000 |
| CC(C)C[C@H](NC/C=C/c1c(F)cc(-c2cc(C(N)=O)c(NC(N)=O)s2)cc1F)C(=O)O [Example 78, N-[(2E)-3-{4-[4-carbamoyl-5-(carbamoylamino)thiophen-2-yl]-2,6-difluorophenyl}prop-2-en-1-yl]-L-leucine] | < 1000 |
| Cc1cc(-c2cc(C(N)=O)c(NC(N)=O)s2)ccc1/C=C/CN[C@@H](CC(C)C)C(=O)O [Example 70, N-[(2E)-3-{4-[4-carbamoyl-5-(carbamoylamino)thiophen-2-yl]-2-methylphenyl}prop-2-en-1-yl]-L-leucine] | < 1000 |
| Cc1cc(/C=C/CN[C@@H](CC(C)C)C(=O)O)ccc1-c1cc(C(N)=O)c(NC(N)=O)s1 [Example 73, N-[(2E)-3-{4-[4-carbamoyl-5-(carbamoylamino)thiophen-2-yl]-3-methylphenyl}prop-2-en-1-yl]-L-leucine] | < 1000 |
| CC(C)C[C@H](NCCc1ccc(-c2cc(C(N)=O)c(NC(N)=O)s2)c(Cl)c1)C(=O)O [Example 64, N-(2-{-4-[4-Carbamoyl-5-(carbamoylamino)-2-thienyl]-3-chlorophenyl}ethyl)-L-leucine] | < 1000 |
| NC(=O)Nc1sc(-c2ccc(/C=C/CN[C@H](C(=O)O)C3CCCCC3)cc2)cc1C(N)=O [Example 83, (2S)-{[(2E)-3-{4-[4-carbamoyl-5-(carbamoylamino)thiophen-2-yl]phenyl}prop-2-en-1-yl]amino}(cyclohexyl)ethanoic acid] | < 1000 |
| CC(C)C[C@@H](NC/C=C/c1ccc(-c2cc(C(N)=O)c(NC(N)=O)s2)cc1)C(=O)O [Example 84, N-[(2E)-3-{4-[4-carbamoyl-5-(carbamoylamino)-2-thienyl]phenyl}prop-2-en-1-yl]-D-leucine] | < 1000 |
| CC(C)C[C@H](NC/C=C/c1ccc(-c2cc(C(N)=O)c(NC(N)=O)s2)cc1Cl)C(=O)O [Example 72, N-[(2E)-3-{4-[4-carbamoyl-5-(carbamoylamino)thiophen-2-yl]-2-chlorophenyl}prop-2-en-1-yl]-L-leucine] | < 1000 |
| CC(C)C[C@H](NC/C=C/c1ccc(-c2cc(C(N)=O)c(NC(N)=O)s2)c(F)c1)C(=O)O [Example 74, N-[(2E)-3-{4-[4-carbamoyl-5-(carbamoylamino)thiophen-2-yl]-3-fluorophenyl}prop-2-en-1-yl]-L-leucine] | < 1000 |
| CC(C)C[C@H](NC/C=C/c1ccc(-c2cc(C(N)=O)c(NC(N)=O)s2)c(Cl)c1)C(=O)O [Example 75, N-[(2E)-3-{4-[4-carbamoyl-5-(carbamoylamino)thiophen-2-yl]-3-chlorophenyl}prop-2-en-1-yl]-L-leucine] | < 1000 |
| NC(=O)Nc1sc(-c2ccc(CN[C@@H](C(=O)O)c3ccccc3)cc2)cc1C(N)=O [Example 53, (2R)-({-4-[4-Carbamoyl-5-(carbamoylamino)-2-thienyl]benzyl}amino)(phenyl)acetic acid] | < 1000 |
